Measured values published in paper PMC11969024, “Development of chemokine network inhibitors using combinatorial saturation mutagenesis” (Communications Biology, 2025).

Tested on: THP1 cells, activated T-cells (ATC), J:CXCR1 cells
Test: Meta-analysis of individual chemokine-induced cell migration experiments
Format: cell-based, human
Settings: seven CC and three CXC chemokines, Dunnett's test
Experimental: Cell migration assays were performed as follows. THP1 cell migration. Briefly, 300000 cells/well were added to the top chamber of a 5-µm 96-well Transwell insert (3387, Corning) in 50 µL of cell migration media (RPMI-1640 (R0883, Sigma), 0.5% FBS (F9665, Sigma), 4mM L-Glutamine (G7513, Sigma), 0.05% DMSO (D4540, Sigma)). The bottom chamber contained 150 µL of migration media with chemokine and peptide. Cells were migrated at 37 °C in 5% CO2 for 4 h. J:CXCR1 cell migration was performed exactly as above using a 3-µm Transwell insert (3385, Corning). Activated T-cell migration. Briefly, 100000 cells/well were added to the top chamber of a 3-µm Transwell insert (3385, Corning) in 50 µL of migration media (HBSS (14025-092, Life Technologies), 0.1% protease free bovine serum albumin (A7030, Sigma), 0.05% DMSO (D4540, Sigma)). The bottom chamber contained 150 µL of migration media with chemokine and peptide. Cells were migrated at 37 °C in 5% CO2 for 2 h. Buffy coat migration. Briefly, a mixture of all cell types at 100000 cells/well were added to the top chamber of a 3-µm Transwell insert (3385, Corning) in 50 µL of migration media (HBSS (14025-092, Life Technologies), 0.1% protease free bovine serum albumin (A7030, Sigma), 0.05% DMSO (D4540, Sigma). The bottom chamber contained 150 µL of migration media with chemokine and peptide. Cells were migrated at 37 °C in 5% CO2 for 2 h. Analysis of cell migration. The migration plate was shaken at 850 RPM for 10 min, and media from bottom plate transferred to a round-bottomed 96 well plate (353910, Falcon). Cells were counted by flow cytometry as described above. Experiments were performed at chemokine EC80 for individual chemotaxis experiments and at EC50 for the pooled chemokine experiments, with three technical replicates, and at least three biological replicates. Statistical significance of differences between control and test groups was evaluated using a two-sided Dunnett’s test with multiple testing correction. Chemokine EC80 or chemokine pool EC50 values were as determined by performing a chemokine dose-response against the cell type and fitting the dose-response curve with a 3-parameter log-logistic model, where the maximal response is fixed at 100% response. […] IC50 was determined by performing inhibitor dose-response experiments and fitting the dose-response curve with a 3-parameter log-logistic model, fixing the bottom of the curve to zero. […] For summary statistics and comparisons, pEC50, pEC80 and pIC50 were calculated as the negative log10 of EC50, EC80 or IC50 expressed in moles/litre.
Sample size and estimated effect sizes were not formally calculated for cell-based or phage-display experiments and no randomization was performed. […]

Row | Sequence | migrated cell count over all chemokines studied, compared to HD2 (meta-analysis)
1 | EEDDWTAYAPLTCYFT [HD2Y5W, HD2 point mutant] | significant improvement over HD2
2 | EEDDYWAYAPLTCYFT [HD2T6W, HD2 point mutant] | significant improvement over HD2
